# Like-named read-outs stand apart in the source and are kept apart here.
# Tests used:
# [1] = test system: P. falciparum 3D7 parasites; experiment: P. falciparum growth inhibition assay, 1-cycle (72 h treatment), SYBR DNA staining (library screen at 2 μg/mL and dose-response); assay type: cell-based, Plasmodium falciparum; details: for activity at 2 µg/mL: Plasmodium falciparum, 3D7
# [2] = test system: P. falciparum 3D7 parasites; experiment: P. falciparum growth inhibition assay, 2-cycle (120 h treatment), delayed-death screen and dose-response; assay type: cell-based, Plasmodium falciparum; details: for activity at 2 µg/mL: Plasmodium falciparum, 3D7
# [3] = test system: T. gondii RH strain (RH-Tub-eYFP) tachyzoites; experiment: microbe, parasite or virus in culture; assay type: cell-based, Toxoplasma gondii
# [4] = P. falciparum, 72 h, screen at 2 μg/mL, replicate 1
# [5] = P. falciparum, 72 h, screen at 2 μg/mL, replicate 2
# [6] = P. falciparum, 120 h, screen at 2 μg/mL, replicate 1
# [7] = P. falciparum, 120 h, screen at 2 μg/mL, replicate 2
# [8] = T. gondii, 72 h, screen at 2 μg/mL, replicate 1
# [9] = T. gondii, 72 h, screen at 2 μg/mL, replicate 2
# [10] = P. falciparum, 72 h, screen at 2 μg/mL, replicate 1, read-out: Pf_72h_%Growth_Rep1
# [11] = P. falciparum, 72 h, screen at 2 μg/mL, replicate 2, read-out: Pf_72h_%Growth_Rep2
# [12] = P. falciparum, 120 h, screen at 2 μg/mL, replicate 1, read-out: Pf_120h_%Growth_Rep1
# [13] = P. falciparum, 120 h, screen at 2 μg/mL, replicate 2, read-out: Pf_120h_%Growth_Rep2
# [14] = library screen at 2 μg/mL, 72 h, % growth, replicate 1
# [15] = library screen at 2 μg/mL, 72 h, % growth, replicate 2
# [16] = library screen at 2 μg/mL, 120 h, % growth, replicate 1
# [17] = library screen at 2 μg/mL, 120 h, % growth, replicate 2
molecule,measurement,setting,value
C=CC(C)(C)c1[nH]c2c(CC=C(C)C)cc(CC=C(C)C)cc2c1C[C@@H]1NC(=O)[C@H](C)NC1=O [Echinulin],activity at 2 µg/mL,"[1]; library screen at 2 μg/mL, 72 h, % growth, replicate 1, read-out: Pf_72h_%Growth_Rep1",25.2%
same,activity at 2 µg/mL,"[1]; library screen at 2 μg/mL, 72 h, % growth, replicate 2, read-out: Pf_72h_%Growth_Rep2",35.1%
same,activity at 2 µg/mL,"[2]; library screen at 2 μg/mL, 120 h, % growth, replicate 1, read-out: Pf_120h_%Growth_Rep1",22.8%
same,activity at 2 µg/mL,"[2]; library screen at 2 μg/mL, 120 h, % growth, replicate 2, read-out: Pf_120h_%Growth_Rep2",39.3%
same,percent parasite growth at 2 µg/mL,"[3]; Toxoplasma gondii; library screen at 2 μg/mL, 72 h, % growth, replicate 1; read-out: Tg_72h_%Growth_Rep1",133%
same,percent parasite growth at 2 µg/mL,"[3]; Toxoplasma gondii; library screen at 2 μg/mL, 72 h, % growth, replicate 2; read-out: Tg_72h_%Growth_Rep2",104%
Telomycin,Pf_72h_%Growth_Rep1,[1]; [4],87.11%
same,Pf_72h_%Growth_Rep2,[1]; [5],125.88%
same,Pf_120h_%Growth_Rep1,[2]; [6],103.58%
same,Pf_120h_%Growth_Rep2,[2]; [7],79.40%
same,Tg_72h_%Growth_Rep1,[3]; [8],151.31%
same,Tg_72h_%Growth_Rep2,[3]; [9],89.83%
CCCCCCCCCC(=O)N[C@@H](Cc1c[nH]c2ccccc12)C(=O)N[C@H](CC(N)=O)C(=O)N[C@@H](CC(=O)O)C(=O)N[C@@H]1C(=O)NCC(=O)N[C@@H](CCCN)C(=O)N[C@@H](CC(=O)O)C(=O)N[C@H](C)C(=O)N[C@@H](CC(=O)O)C(=O)NCC(=O)N[C@H](CO)C(=O)N[C@@H]([C@H](C)CC(=O)O)C(=O)N[C@@H](CC(=O)c2ccccc2N)C(=O)O[C@@H]1C [Daptomycin],activity at 2 µg/mL,[1]; [10],88.5%
same,activity at 2 µg/mL,[1]; [11],114%
same,activity at 2 µg/mL,[2]; [12],90.7%
same,activity at 2 µg/mL,[2]; [13],116%
same,percent parasite growth at 2 µg/mL,"[3]; Toxoplasma gondii, 72 h, T. gondii, 72 h, screen at 2 μg/mL, replicate 1; read-out: Tg_72h_%Growth_Rep1",132%
same,percent parasite growth at 2 µg/mL,"[3]; Toxoplasma gondii, 72 h, T. gondii, 72 h, screen at 2 μg/mL, replicate 2; read-out: Tg_72h_%Growth_Rep2",90.1%
CC[C@H]1OC(=O)[C@H](C)[C@@H](O[C@H]2C[C@@](C)(OC)[C@@H](O)[C@H](C)O2)[C@H](C)[C@@H](O[C@@H]2O[C@H](C)C[C@H](N(C)C)[C@H]2O)[C@@]2(C)C[C@@H](C)[C@@]3(O[C@@]1(C)[C@H](O)[C@H]3C)O2 [Anhydroerythromycin A],Pf_72h_%Growth_Rep1,[1]; [14],84.47%
same,Pf_72h_%Growth_Rep2,[1]; [15],88.69%
same,Pf_120h_%Growth_Rep1,[2]; [16],87.25%
same,Pf_120h_%Growth_Rep2,[2]; [17],85.54%
same,Tg_72h_%Growth_Rep1,[3]; [14],129.02%
same,Tg_72h_%Growth_Rep2,[3]; [15],98.86%
C[C@H]1CCCC(=O)CCC/C=C/c2cc(O)cc(O)c2C(=O)O1 [Zearalenone],activity at 2 µg/mL,[1]; [10],89.4%
same,activity at 2 µg/mL,[1]; [11],99.7%
same,activity at 2 µg/mL,[2]; [12],88.9%
same,activity at 2 µg/mL,[2]; [13],64.3%
same,percent parasite growth at 2 µg/mL,"[3]; Toxoplasma gondii; T. gondii, 72 h, screen at 2 μg/mL, replicate 1; read-out: Tg_72h_%Growth_Rep1",104%
same,percent parasite growth at 2 µg/mL,"[3]; Toxoplasma gondii; T. gondii, 72 h, screen at 2 μg/mL, replicate 2; read-out: Tg_72h_%Growth_Rep2",74%
C/C(=C\C(=O)OCCCCCCCCC(=O)O)C[C@@H]1OC[C@H](C[C@@H]2O[C@H]2[C@@H](C)[C@H](C)O)[C@@H](O)[C@H]1O [Pseudomonic acid],activity at 2 µg/mL,"[1]; P. falciparum, 72 h, parasite screen 2 μg/mL, % growth, replicate 1, read-out: Pf_72h_%Growth_Rep1",29.1%
same,activity at 2 µg/mL,"[1]; P. falciparum, 72 h, parasite screen 2 μg/mL, % growth, replicate 2, read-out: Pf_72h_%Growth_Rep2",6.31%
same,activity at 2 µg/mL,"[2]; P. falciparum, 120 h, parasite screen 2 μg/mL, % growth, replicate 1, read-out: Pf_120h_%Growth_Rep1",0.62%
same,activity at 2 µg/mL,"[2]; P. falciparum, 120 h, parasite screen 2 μg/mL, % growth, replicate 2, read-out: Pf_120h_%Growth_Rep2",28.1%
same,percent parasite growth at 2 µg/mL,"[3]; Toxoplasma gondii, 72 h, T. gondii, 72 h, parasite screen 2 μg/mL, % growth, replicate 1; read-out: Tg_72h_%Growth_Rep1",70.8%
same,percent parasite growth at 2 µg/mL,"[3]; Toxoplasma gondii, 72 h, T. gondii, 72 h, parasite screen 2 μg/mL, % growth, replicate 2; read-out: Tg_72h_%Growth_Rep2",74.5%
COc1cc2c(oc(=O)c3cc(C)cc(OC)c32)c2c([C@H]3O[C@@H]([C@@H](C)O)[C@H](O)[C@H]3O)ccc(O)c12 [BIA-G1034],Pf_72h_%Growth_Rep1,"[1]; P. falciparum 3D7, 72 h, library screen at 2 μg/mL, % growth, replicate 1",90.69%
same,Pf_72h_%Growth_Rep2,"[1]; P. falciparum 3D7, 72 h, library screen at 2 μg/mL, % growth, replicate 2",120.87%
same,Pf_120h_%Growth_Rep1,"[2]; P. falciparum 3D7, 120 h, library screen at 2 μg/mL, % growth, replicate 1",90.16%
same,Pf_120h_%Growth_Rep2,"[2]; P. falciparum 3D7, 120 h, library screen at 2 μg/mL, % growth, replicate 2",122.56%
same,Tg_72h_%Growth_Rep1,"[3]; T. gondii RH, 72 h, library screen at 2 μg/mL, % growth, replicate 1",123.33%
same,Tg_72h_%Growth_Rep2,"[3]; T. gondii RH, 72 h, library screen at 2 μg/mL, % growth, replicate 2",101.31%
C=C[C@@](C)(CCC=C(C)C)c1ccc2c3c(c[nH]c13)C[C@@H](CO)NC(=O)[C@H](C(C)C)N2C [Teleocidin A1],Pf_72h_%Growth_Rep1,[1]; [4],6.74%
same,Pf_72h_%Growth_Rep2,[1]; [5],-5.43%
same,Pf_120h_%Growth_Rep1,[2]; [6],8.14%
same,Pf_120h_%Growth_Rep2,[2]; [7],11.61%
same,Tg_72h_%Growth_Rep1,[3]; [8],75.89%
same,Tg_72h_%Growth_Rep2,[3]; [9],83.10%
COc1c(O)c2c(=O)cc3c4c5c(cc(=O)c6c(O)c(OC)c(C[C@H](C)OC(C)=O)c(c(c1C[C@H](C)OC(C)=O)c24)c65)OCO3 [Diacetylcercosporin],Pf_72h_%Growth_Rep1,[1]; [14],2.60%
same,Pf_72h_%Growth_Rep2,[1]; [15],15.99%
same,Pf_120h_%Growth_Rep1,[2]; [16],-5.54%
same,Pf_120h_%Growth_Rep2,[2]; [17],6.35%
same,Tg_72h_%Growth_Rep1,[3]; [14],4.49%
same,Tg_72h_%Growth_Rep2,[3]; [15],14.87%

# From PMC12396409, “Screening and hit evaluation of a microbial metabolite library against the pathogenic Plasmodium falciparum and Toxoplasma gondii parasites” (International Journal for Parasitology: Drugs and Drug …, 2025)
